Converted amounts (≈) assume the structure as drawn.
What was measured:
Assay in all cases: In vitro anti-bacterial activity (MIC90), ophthalmologic clinical bacteria isolates
Type in all cases: cell-based
Pseudomonas aeruginosa = details: Gram-negative
[1] = tested on: Penicillin-resistant Streptococcus pneumoniae
Streptococcus pneumoniae = details: Gram-positive
[2] = tested on: Coagulase-negative Staphylococcus; details: Gram-positive
Propionibacterium acnes = details: Cutibacterium acnes, Gram-positive
[3] = tested on: Ofloxacin-resistant Staphylococcus aureus
Corynebacterium species = details: Gram-positive
Moraxella species = details: Gram-negative
Haemophilus influenzae = details: Gram-negative
[4] = tested on: Gentamycin-resistant Pseudomonas aeruginosa
[5] = tested on: Gentamycin-resistant Staphylococcus aureus
Staphylococcus aureus = details: Gram-positive

CCn1cc(C(=O)O)c(=O)c2cc(F)c(N3CCNCC3)cc21 [Norfloxacin]
MIC90 (Pseudomonas aeruginosa): 4 mg/L (≈ 12.5 µM)
MIC90 [1]: 8 mg/L (≈ 25.1 µM)
MIC90 (Streptococcus pneumoniae): 8 mg/L (≈ 25.1 µM)
MIC90 [2]: 128 mg/L (≈ 401 µM)
MIC90 (Propionibacterium acnes): 4 mg/L (≈ 12.5 µM)
MIC90 [3]: > 128 mg/L
MIC90 (Corynebacterium species): 16 mg/L (≈ 50.1 µM)
MIC90 (Moraxella species): 0.25 mg/L (≈ 0.783 µM)
MIC90 (Haemophilus influenzae): ≤ 0.06 mg/L
MIC90 [4]: 128 mg/L (≈ 401 µM)
MIC90 [5]: 128 mg/L (≈ 401 µM)
MIC90 (Staphylococcus aureus): > 128 mg/L

From patent US20080200442A1, “Compositions and Methods for Treating, Reducing, Ameliorating, or Preventing Infections of the Ear or Upper Respiratory Tract” (priority 2007, published 2008)
